Experimental data published in patent US20240245712A1, “METHODS AND MATERIALS FOR IDENTIFYING AND TREATING MEMBRANOUS NEPHROPATHY” (Mayo Foundation for Medical Education and Research, priority 2023, published 2024).

Test system: syphilis-associated membranous nephropathy (nephrotic syndrome)
Assay: Follow-up of syphilis-associated NDNF-positive membranous nephropathy patients treated with antibiotics
Assay type: in vivo, human
Procedure: Biopsies for diagnosis were evaluated. The diagnosis of MN was confirmed by light microscopy (LM), immunofluorescence (IF) microscopy including PLA2R studies, and electron microscopy (EM). The clinical information was obtained from the accompanying charts. For detection of novel proteins, MS/MS was performed in 250 cases of PLA2R-negative cases (discovery cohort) that included cases used for identification of EXT1/EXT2, NELL1, SEMA3B, PCDH7, and FAT1 (Sethi et al., J. Am. Soc. Nephrol., 30:1123-1136 (2019); Sethi et al., Kid. Int., 97:163-174 (2020); Sethi et al., Kid. Int., 98:1253-1265 (2020); Sethi et al., J. Am. Soc. Nephrol., 32:1249-1261 (2021); and Sethi et al., J. Am. Soc. Nephrol., 33:1033-1044 (2022)). A NDNF polypeptide was detected in 3 cases of PLA2R-negative MN (NDNF-associated MN) by MS/MS. All 3 cases were negative for spectral counts for THSD7A, EXT1/EXT2, NELL1, SEMA3B, HTRA1, CNTN1, NCAM1, PCDH7, and FAT1 while baseline spectral counts for PLA2R were present in 2 of the 3 cases.
Using MS/MS, 14 cases of hepatitis B-associated MN and 5 cases of syphilis-associated MN were screened for MN antigens (validation cohort). Tissue from 4 cases (cases 4-7) of syphilis-associated MN were obtained from Cedars Sinai Medical Center and one case (cases 8-9) from Mayo Clinic. Cases 8 and 9 were from the same patient who was biopsied twice, 3 months apart. […]

## penicillin
Case 8, repeat biopsy 3 months later, after complete remission
  Repeat kidney biopsy finding after treatment: continued to show membranous nephropathy
Patients with syphilis and NDNF-associated MN, follow-up available in 4 of the 6 cases of syphilis
  Outcome of the nephrotic syndrome after antibiotic treatment: complete remission
